In assay [1] the target is T1, Ephrin type-B receptor 2 (Homo sapiens, UniProt P29323).
T1 sequence (P29323 whole entry): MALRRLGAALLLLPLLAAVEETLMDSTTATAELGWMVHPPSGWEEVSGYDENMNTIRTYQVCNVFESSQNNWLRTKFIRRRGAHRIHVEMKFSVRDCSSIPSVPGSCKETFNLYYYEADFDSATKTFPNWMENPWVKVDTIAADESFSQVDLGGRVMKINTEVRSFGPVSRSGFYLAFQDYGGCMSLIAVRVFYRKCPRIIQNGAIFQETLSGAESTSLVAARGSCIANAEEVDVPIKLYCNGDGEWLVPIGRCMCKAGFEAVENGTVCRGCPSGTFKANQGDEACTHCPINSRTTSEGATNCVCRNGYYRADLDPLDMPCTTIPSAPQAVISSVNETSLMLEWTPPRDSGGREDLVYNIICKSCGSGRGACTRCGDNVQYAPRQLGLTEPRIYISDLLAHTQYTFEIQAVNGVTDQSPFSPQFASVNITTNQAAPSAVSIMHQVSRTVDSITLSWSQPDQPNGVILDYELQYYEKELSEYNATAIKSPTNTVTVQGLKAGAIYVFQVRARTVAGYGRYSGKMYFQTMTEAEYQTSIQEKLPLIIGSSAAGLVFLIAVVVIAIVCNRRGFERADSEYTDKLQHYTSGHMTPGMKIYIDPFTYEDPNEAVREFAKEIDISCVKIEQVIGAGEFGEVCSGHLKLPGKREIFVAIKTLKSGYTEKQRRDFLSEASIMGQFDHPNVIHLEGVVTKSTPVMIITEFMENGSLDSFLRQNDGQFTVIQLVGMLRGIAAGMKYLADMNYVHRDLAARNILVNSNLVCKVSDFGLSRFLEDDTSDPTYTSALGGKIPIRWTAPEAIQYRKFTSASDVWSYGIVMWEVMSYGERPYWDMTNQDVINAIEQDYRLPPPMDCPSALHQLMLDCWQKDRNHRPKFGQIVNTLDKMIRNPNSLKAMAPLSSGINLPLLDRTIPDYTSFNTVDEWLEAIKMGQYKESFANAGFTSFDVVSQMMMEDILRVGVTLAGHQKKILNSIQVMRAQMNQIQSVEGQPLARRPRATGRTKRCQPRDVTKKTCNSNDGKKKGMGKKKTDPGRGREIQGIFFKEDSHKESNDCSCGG
The experiment in a line: Inhibition of EPH receptor B2 using ELISA.

Assay [2] has as its target T1, Ephrin type-B receptor 2. Nature of the assay: Equilibrium binding constant for EPH receptor B2.

By IC50 is commonly meant the point on the concentration scale where inhibition reaches its midpoint. A low value points to inhibition by little substance. A word on the Kd: it is a measure of binding affinity in units of concentration. A higher Kd goes with weaker binding. The compound `COc1cc2ncnc(Nc3cccc(O)c3)c2cc1OC` came in with an IC50 against Ephrin type-B receptor 2 [1] of 1.2 µM. The Kd on Ephrin type-B receptor 2 [2] worked out at 2.4 µM.

In turn, `O=C1C=C(Nc2ccc(O)cc2)C(=O)c2ccccc21` returned an IC50 against Ephrin type-B receptor 2 [1] of 38 µM.

`COc1cc2ncnc(Nc3cccc(Br)c3)c2cc1OC` had an IC50 against Ephrin type-B receptor 2 [1] of 10.2 µM. On Ephrin type-B receptor 2 [2], this compound showed a Kd of 8.1 µM.

On Ephrin type-B receptor 2 [1], `CN(C)c1ccc(/C=C2/C(=O)Nc3ccccc32)cc1` showed an IC50 of 27.5 µM. Besides, the Kd at Ephrin type-B receptor 2 [2] was determined as 19.5 µM.

Take `CC(C)(C)n1nc(-c2ccc(Cl)cc2)c2c(N)ncnc21`: it took 52 µM to reach half-maximal inhibition against Ephrin type-B receptor 2 [1] (IC50). Further, at Ephrin type-B receptor 2 [2], the Kd worked out at 36.5 µM.

On Ephrin type-B receptor 2 [1], `CNc1ccc2c(Nc3cccc(Br)c3)ncnc2c1` registered an IC50 of 34 µM. This compound displayed a Kd at Ephrin type-B receptor 2 [2] of 21.9 µM.

The compound `COc1cc2ncnc(Nc3ccc(Oc4ccccc4)cc3)c2cc1OC` showed an IC50 against Ephrin type-B receptor 2 [1] of 86 µM. For the same compound, on Ephrin type-B receptor 2 [2], binding was characterised by a dissociation constant (Kd) of 58.4 µM.

Source of the values: ChEMBL document CHEMBL1144354, “Frontal affinity chromatography with MS detection of EphB2 tyrosine kinase receptor. 2. Identification of small-molecule inhibitors via coupling with virtual screening” (J Med Chem, 2005).
